Test results: US20130116182A1, “Factor VIII B Cell Epitope Variants Having Reduced Immunogenicity” (priority 2009, published 2013)

What was measured:
[1] = test system: CD4+ T cells; assay: Staining with peptide-loaded DR0101 tetramers (tetramer guided epitope mapping); format: cell-based, human; conditions: DR0101 tetramers
Text: T-cell clones were obtained from blood samples from both brothers by staining CD4+ cells with fluorescent DR0101 tetramers that were loaded with peptide FVIII2194-2213, followed by single-cell sorting and expansion. Clones were expanded by stimulation with irradiated peripheral blood mononuclear cells (PBMCs) from an HLA-mismatched individual plus phytohemagglutinin (Remel, Lenexa, Kans.) in the presence of human IL-2 (Hemagen Diagnostics, Inc., Columbia, Md.). Clonality was confirmed by tetramer staining, multiplex PCR and sequencing of the VDJ region in the PCR products.
a. Added 1.5 μl PE-labeled tetramers (final concentration 10 μg/ml. b. Mixed by shaking the rack containing the FACS tubes. c. Incubated the cells with tetramer for 1 hr in the 37 C 5% CO2 incubator.
(§1) a. Incubated tubes in the refrigerator for >5 min. b. Made an antibody cocktail consisting of 3.75 μl anti-CD4-APC, 3.75 μl anti-CD3-PerCP, 3.75 μl anti-CD25-FITC per sample. 3.75 ul×50=187.5 ul. c. Added 3.75 μl control antibodies to 75 μl control cells (1 —unstained; 2—anti-CD4-FITC; 3—anti-CD4-PE; 4—anti-CD3-PerCP; 5—anti-CD4-APC). d. Added 11.25 μl antibody cocktail to each sample. e. Incubated all samples at 4 C (put in the refrigerator) for 20 min in the dark.
a. Added 2 ml cold FACS wash buffer to each tube. b. Centrifuged at 1200 rpm, 10 min, 4 C, low brake in the Beckman Coulter Allegra 6KR centrifuge. c. Decanted the supernatant. d. Resuspended in 200 μl FACS wash buffer. e. Stored tubes in a covered ice container for FACS analysis.
a. Added 1.5 μl PE-labeled tetramers (final concentration 10 μg/ml). b. Mixed by shaking the rack containing the FACS tubes. c. Incubated the cells with tetramer for 1 hr in the 37 C 5% CO2 incubator.
as §1, with “ul×55=206.25 ul (For the CD25-FITC Ab, I opened a new vial (Lot #E016414)—taking 100 ul from this lot.)” for “ul×50=187.5 ul.”
a. Added 2 ml cold FACS wash buffer to each tube. b. Centrifuged at 1200 rpm, 10 min, 4 C, low brake in the Beckman Coulter Allegra 6KR centrifuge. c. Decanted the supernatant. d. Resuspended in 250 μl FACS wash buffer. e. Stored tubes in a covered ice container for FACS analysis.

[2] = test system: FVIII2194-2213 specific T-cell clones restricted by DR0101; assay: Antigen presentation assay, T-cell proliferation ([3H]thymidine uptake); format: cell-based, human; conditions: clones from mild HA subjects 17A/32A, b176-b179, b188 peptides (F2196A = FVIII2194-2205 peptide), b37/b180 C2 proteins
Protocol: Antigen presentation. FVIII peptides and FVIII C2 domain proteins were added to irradiated PBMCs from a DRB1*0101 donor. Peptides were added at final concentrations of 100, 50, 10, 5, 1, 0.1, and 0.01 μM. Proteins were added at final concentrations of 1, 0.5, 0.1, 0.05, 0.01, 0.005, and 0.001 μM. After a 4-hour incubation at 37° C., FVIII2194-2213 specific T-cell clones restricted by DR0101 were added to each well. At 48 hours, 50 μl supernatant was removed from each well for cytokine analysis and replaced with [^3H]thymidine (1 μCi/well) in T-cell medium. Cells were harvested after 14-16 h of further incubation and [^3H] thymidine uptake was measured. Levels of IFN-γ, IL-4, and IL-17A in cell supernatants were measured with standard sandwich ELISAs. EC50 values (concentration at which half-maximal levels occur) were determined with Systat (Systat Software, Inc., San Jose, Calif.) using a three parameter sigmoid model.
The minimal epitope and MHC Class II (DR0101) “anchor” residues were determined using a competition assay measuring displacement of a labeled peptide having high affinity for recombinant DR0101 by a series of FVIII peptides. […] Binding of the peptides to five additional DR alleles was evaluated directly using recombinant proteins; predicted binding of peptides to additional DR alleles was evaluated using the program ProPred. […]

## SYFTNMFATWSPSKARLHLQ [Mutant C2-4]
[1]; clones from both mild HA brothers
  tetramer staining of T-cell clones: strong, unambiguous staining
[1]; severe HA inhibitor subject 56A, day 18
  Positive (individual peptide loaded tetramer staining): yes
[2]
  T-cell clone proliferation response: proliferated strongly
